From patent publication US11795190B2, “D-glycero-B-D-heptose 1-phosphate (HMP) conjugates and use for targeted immune modulation” (NATIONAL RESEARCH COUNCIL OF CANADA, priority 2017, dated 2023) come the findings set out here.

This test relates to HEK 293T cells encoding an NF-κB-driven luciferase reporter gene. Briefly: NF-κB-driven luciferase reporter assay in HEK 293T cells. Type of test: cell-based, human. As to conditions: FIG. 12; HEK 293T; 10, 30 or 50 μg/mL, digitonin 20 min, luciferase after 6 hours. How it is done:
FIGS. 10A-B. Effect of chemically synthesised analogues on human embryonic kidney cells (HEK 293T) encoding an NF-κB-driven luciferase reporter gene. NF-κB luciferase activity was measured in wild type (WT) or TIFA knockout (TIFA KO) cells treated with compounds in the presence of digitonin for 20 min, washed, and then cultured in normal medium without the synthetic compounds for 6 hrs after treatment, before luciferase activity was measured. (A) Cells were treated with 10 μg/mL of the indicated compound. Data are means±standard error mean of technical triplicates. (B) Cells were treated with two different molar concentrations of compound (30 μM or 150 μM). Two batches of DD-β-HBP and DD-β-HMP synthesized independently of one another were tested (batch #1 and batch #2) to assess consistency of the chemical synthesis. Data are means±standard error mean of technical triplicates and are representative of three independent experiments. JS-12: D-glycero-D-manno-heptose; JS-2: D-glycero-D-manno-heptose 7-phosphate; JS-7:D-glycero-β-D-manno-heptose-phosphate; JS-8: D-glycero-α-D-manno-heptose-phosphate; JS-9: β-D-mannose phosphate; JS-6:D-glycero-β-D-manno heptose 1,7-biphosphate; JS-5: D-glycero-α-D-manno heptose 1,7-biphosphate.
FIG. 12. Effects of compounds/products according to the invention on HEK 293T cells encoding an NF-κB-driven luciferase reporter gene. HEK 293T cells were transfected with a plasmid encoding an NF-κB-driven luciferase reporter. After 24 hours, cells were stimulated for 20 minutes in permeabilization buffer (5 μg/mL digitonin) in the presence of water or 10 μg/mL, 30 μg/mL, or 50 μg/mL of indicated synthetic compounds according to the invention. Treatment was removed; cells were washed and incubated for 6 hours incomplete medium. A luciferase assay was then performed. JS-12a control: D-glycero-D-manno heptose. The results are the means±standard error of the mean of three technical replicates. JS-10: 7-O-(Aminoethyl)-D-glycero-β-D-manno-heptopyranose phosphate; JS-11: 7-O-(Aminoethyl)-D-glycero-D-manno-heptopyranose; JS-12: D-glycero-D-manno-heptose; Js-13: pH-Rhodo-7-O-(aminoethyl)-D-glycero-β-D-manno-heptopyranose phosphate.
FIG. 14. Effects of compounds/products according to the invention on HEK 293T cells encoding an NF-κB-driven luciferase reporter gene. HEK 293T cells were transfected with a plasmid encoding an NF-κB-driven luciferase reporter. After 24 hours, cells were stimulated for 20 minutes in permeabilization buffer (5 μg/mL digitonin) in the presence of water, or either 30 μM or 150 μM of indicated synthetic compounds according to the invention. Treatment was removed; cells were washed and incubated for 6 hours in complete medium. A luciferase assay was then performed. […]

For the compound `NCCOC[C@@H](O)C1O[C@@H](OP(=O)([O-])[O-])C(O)[C@@H](O)[C@@H]1O.[Na+].[Na+]` (stereo partly drawn) [JS-10a, 7-O-(Aminoethyl)-D-glycero-β-D-manno-heptopyranose phosphate], the “inflammatory response (NF-κB luciferase)” value is recorded as “modest inflammatory response”.
